# Experiments:
# [1] = Evaluation of photopolymerization reactivity (Photo-DSC); assay type: physicochemical; conditions: ink: 950 mg monomer compound + 50 mg IRGACURE 907; 365 nm, 200 mW/cm^2
# Description: Inks for evaluation were each prepared by mixing 950 mg of the monomer compound presented in a respective column of each Example or Comparative Example in Table 1 with 50 mg of 2-methyl-1-[4-(methylthio)phenyl]-2-morpholinopropan-1-one (IRGACURE 907, manufactured by BASF Japan Ltd.) serving as a polymerization initiator, by means of a magnetic stirrer.
# An evaluation test for photopolymerization reactivity was performed on each ink using a measuring device combining DSC-7020 manufactured by Seiko Instruments Inc. with a spot light source (LA-410UV) manufactured by HAYASHI WATCH-WORKS CO., LTD. (referred to as Photo-DSC hereinafter). As for the light for radiation, light having wavelength of 365 nm was used, and the light quantity was set to 200 mW/cm^2.
# The calorific value of the polymerization reaction carried out after radiation of light was measured by Photo-DSC. A measurement of the calorific value, which was obtained when light was applied for sufficient time to complete a polymerization reaction of the monomer compound, was performed twice on one sample. The calorific value obtained with the first measurement contains the calorific value from radiation of light as well as the calorific value from the polymerization reaction of the monomer compound. Therefore, the sample which completed the polymerization reaction by the first measurement was subjected to radiation of light under the same condition, and the calorific value of the heat other than the heat generated from the polymerization reaction of the monomer compound was measured. The calorific value of the polymerization reaction of the monomer compound was determined with a difference between the calorific value obtained in the first measurement and the calorific value obtained in the second measurement.
# As for the exothermic characteristic thereof, the time required to achieve the maximum calorific value from the time for starting radiation of light was determined as T1 (sec.), which was used as an index for comparing the speed of the photopolymerization reaction.
# [2] = Evaluation of photocuring ability (photorheometer); assay type: physicochemical; conditions: 365 nm; for Photocuring (photorheometer) Elastic modulus: ink: 950 mg monomer + 50 mg IRGACURE 907, 50 mW/cm^2, 10 μm gap, saturated elastic modulus; for Photocuring (photorheometer) Curing energy: light energy applied until elastic modulus saturated; for Photocuring (photorheometer) Curing energy / Photocuring result in words (curing state, elastic modulus): 50 mW/cm^2
# Description: An evaluation for curing ability from photopolymerization was performed on each ink using a measuring device combining a rheometer VAR200AD, manufactured by REOLOGICA Instruments AB, with an LED light source (LIGHTNINGCURE LC-L1) manufactured by Hamamatsu Photonics K.K. (referred to as Photorheometer, hereinafter).
# A measurement was performed in the following manner. A sample was placed in a gap of 10 μm between a pair of corm plates each having a diameter of 20 mm, and light (365 nm, 50 mW/cm^2) emitted from the LED light source was applied to the sample. A change in viscoelsticity caused by curing was measured, and the time when the elastic modulus (Pa) was saturated was determined as completion of curing. Based on the measurement result, the terminal point of the elastic modulus was determined, which was determined as an index of a curing level. Typically, the level of 1×10^4 (Pa) is a level where the sample is completely cured. Moreover, light energy (curing energy) applied until the elastic modulus was saturated was calculated by the product of light radiation intensity (here, which was 50 mW/cm^2) and a period (sec.) for light radiation.
SMILES,"Photopolymerization reactivity (Photo DSC) T1, time required to achieve the maximum calorific value from start of light radiation [1] [s]",Photocuring (photorheometer) Elastic modulus [2],Photocuring (photorheometer) Curing energy [2],"Photocuring result in words (curing state, elastic modulus) [2]","Photocuring result in words (curing state, elastic modulus) ([2]; listed as Comparative Example 7)","Photocuring result in words (curing state, elastic modulus) ([2]; listed as Comparative Example 4)"
"C=C(C)C(=O)OCCN1CCOCC1 [Commercial product (e), reference compound]",30.3,8.6*10^4 Pa,"2,050 mJ/cm^2",,,
"C=CC(=O)OCCOc1ccccc1 [Commercial product (a), reference compound]",2.5,4.8*10^4 Pa,200 mJ/cm^2,,,
C=CC(=O)OCC(CC)(COC(=O)C=C)COC(=O)N(CC)CC [J-3],2.4,1.0*10^5 Pa,100 mJ/cm^2,,,
C=CC(=O)OCCOC(=O)N1CCCCC1 [E-1],4.5,5.0*10^4 Pa,380 mJ/cm^2,,,
"C=C(C)C(=O)OCCOc1ccccc1 [Commercial product (b), reference compound]",19.3,8.0*10^4 Pa,"2,020 mJ/cm^2",,,
C=CC(=O)OCC(COC(=O)N(CC)CC)OC(=O)C=C (centres unmarked) [G-3],2.4,1.0*10^5 Pa,140 mJ/cm^2,,,
"C=C(C)C(=O)OCCSCC [Ref. Syn. Ex. 2, 2-methacryloxyethylethyl sulfide, reference compound]",10.3,<1.0 Pa,,(not cured),extremely low elastic modulus,
"C=CC(=O)OCCN1CCOCC1 [Commercial product (d), reference compound]",4.5,1.3*10^4 Pa,365 mJ/cm^2,,,
"C=CC(=O)OCCSCC [Ref. Syn. Ex. 1, 2-acryloxy ethylethyl sulfide, reference compound]",2.5,1.1*10^3 Pa,,(not cured),,extremely low elastic modulus
C=CC(=O)OCCOC(=O)N(CC)CC [B-1],3.2,9.4*10^3 Pa,520 mJ/cm^2,,,
"C=CC(=O)OCCOC(=O)NCCCC [Commercial product (c), reference compound]",2.5,3.2*10^4 Pa,210 mJ/cm^2,,,
C=CC(=O)OCCOC(=O)N1CCOCC1 [D-1],3.2,7.9*10^4 Pa,175 mJ/cm^2,,,

# More lines, now with the values ahead:
"Photopolymerization reactivity (Photo DSC) T1, time required to achieve the maximum calorific value from start of light radiation [1] [s]",Photocuring (photorheometer) Elastic modulus [2],Photocuring (photorheometer) Curing energy [2],"Photocuring result in words (curing state, elastic modulus) [2]","Photocuring result in words (curing state, elastic modulus) ([2]; listed as Comparative Example 7)","Photocuring result in words (curing state, elastic modulus) ([2]; listed as Comparative Example 4)",SMILES
4.8,1.0*10^5 Pa,210 mJ/cm^2,,,,C=C(C)C(=O)OCC(COC(=O)N(CC)CC)OC(=O)C(=C)C (centres unmarked) [G-4]
12.0,9.0*10^4 Pa,840 mJ/cm^2,,,,C=C(C)C(=O)OCCOC(=O)N1CCCCC1 [E-2]
3.2,8.4*10^4 Pa,150 mJ/cm^2,,,,C=CC(=O)OC1CCN(C(=O)OCC)CC1 [F-1]
7.0,9.4*10^4 Pa,430 mJ/cm^2,,,,C=C(C)C(=O)OC1CCN(C(=O)OCC)CC1 [F-2]
7.0,7.6*10^4 Pa,380 mJ/cm^2,,,,C=C(C)C(=O)OCCOC(=O)N1CCOCC1 [D-2]
3.0,1.0*10^5 Pa,110 mJ/cm^2,,,,C=C(C)C(=O)OCC(CC)(COC(=O)C(=C)C)COC(=O)N(CC)CC [J-4]
10.9,8.0*10^4 Pa,"1,950 mJ/cm^2",,,,C=C(C)C(=O)OCCOC(=O)N(CC)CC [B-2]
